Measurements taken from patent US20150202192A1, “PHARMACEUTICAL COMPOSITION FOR TREATING GASTRO-OESOPHAGEAL REFLUX DISEASE” (priority 2012, published 2015).

Columns and labels:
intestinal bacteria = settings: humans, 3 g daily dose; cited from earlier work
[1] = Clinical study in GERD patients: symptom severity (pyrosis, regurgitation) on Likert scale; assay type: in vivo, human; settings: n = 10; for medium term arresting pyrosis / medium term arresting regurgitation: oral, 2 times a day for 56 days
[2] = Clinical study in GERD patients: tolerability (diarrhea, flatulence, AE necessitating discontinuation); assay type: in vivo, human; settings: n = 10
Source text: (§1) The study included 100 patients with endoscopically negative GERD form, i.e. men and women aged 19 to 50 years old infected with H. pilori.
All the patients were divided into 10 groups of 10 persons each, of whom 5 groups (I-V) were experimental ones, while 5 groups (VI-X) were control ones.
In the experimental groups patients received orally the claimed dosage forms based on PPI and a prebiotic; Group I—a composition which contained omeprazole and lactulose as active components; Group II—a composition which contained pantoprazole and lactitol as active components; Group III—a composition which contained lansoprazole and inulin as active components; Group IV—a composition which contained rabeprazole and fructooligosaccharides as active components; Group V—a composition which contained esomeprazole and lactulose as active components.
In the control groups the patients received PPI monotherapy orally: Group VI—omeprazole; Group VII—pantoprazole; Group VIII—lansoprazole; Group IX—rabeprazole and Group X—esomeprazole.
(§2) All the patients received treatment on a similar pattern: they received the composition of a proton pump inhibitor and a prebiotic 2 times a day for 56 days.
The patients kept their diaries in which they made daily records of the time when they took drugs, recorded disease symptom severity according to Likert scale, severity of meteorism, defecation frequency, etc.
(§3) Repeated visits were made in 2 and 5 weeks after the treatment start; during the visits treatment efficacy and safety were determined, besides, it was determined if the therapy could be continued. In 56 days (8 weeks) after the therapy start, the patient came to a visit, wherein efficacy and safety of treatment was evaluated and the treatment was terminated. In 11 weeks after the treatment start, the final visit was made which included esophagogastroduodenoscopy with byopsy of the antrum and the gastric corpus for HP detection.

[3] = Clinical study in GERD patients: hydrogen breathing test for bacterial overgrowth syndrome; assay type: in vivo, human; settings: n = 10
Source text: as §1, §2
Before and after treatment course (on Day 56) all the patients were subjected to hydrogen breathing test on the presence of bacterial overgrowth syndrome.

Helicobacter pylori = assay: Clinical study in GERD patients: biopsy of antrum and gastric corpus for Helicobacter pylori (cytology/histology, urease test); assay type: in vivo, human; settings: n = 10
Source text: as §1, §2
In all patients, before treatment and in 4 weeks (1 month) after completion of the treatment course the biopsy of the antrum and gastric corpus was made for the presence of Helicobacter pylori. For HP diagnostics the following was used:
1. Cytological and histological biopsy of mucosa of the antrum and gastric corpus obtained in gastroscopy.
2. Urease test, in which the mucous membrane biopsy material obtained from the antrum and the gastric corpus were examined for the presence of urease, an enzyme specific for Helicobacter pylori.
as §3

[4] = Clinical study in GERD patients: quality of life by Visual Analog Scale; assay type: in vivo, human; settings: n = 10
[5] = after treatment (oral, 2 times a day for 56 days)
[6] = after treatment, biopsy after completion of the 56-day course

Compound | Intensity pyrosis on scale Likert [1, 5] [ball] | Intensity regurgitation on scale Likert [1, 5] [ball] | Intensity pyrosis on scale Likert ([1]; before treatment) [ball] | Intensity regurgitation on scale Likert ([1]; before treatment) [ball] | medium term arresting pyrosis [1] [days] | medium term arresting regurgitation [1] [days] | AE, necessitating discontinuation of therapy ([2]; after treatment (56 days)) [%] | Presence diarrhea ([2]; after treatment (56 days)) [%] | Presence flatulence ([2]; after treatment (56 days)) [%] | Presence diarrhea ([2]; before treatment) [%] | Presence flatulence ([2]; before treatment) [%] | Presence bacterial overgrowth syndrome ([3]; after treatment (Day 56)) [%] | Presence bacterial overgrowth syndrome ([3]; before treatment) [%] | release Helicobacter pylori in the antrum (Helicobacter pylori; [6]) [%] | release Helicobacter pylori in the stomach (Helicobacter pylori; [6]) [%] | release Helicobacter pylori in the antrum (Helicobacter pylori; before treatment) [%] | release Helicobacter pylori in the stomach (Helicobacter pylori; before treatment) [%] | Quality of life no VAC ([4]; after treatment (56 days)) [MM] | Quality of life no VAC ([4]; before treatment) [MM] | further results
OC[C@H]1O[C@@H](O[C@@H]2[C@@H](CO)OC(O)(CO)[C@H]2O)[C@H](O)[C@@H](O)[C@H]1O (mixture of isomers) [lactulose] | – | – | – | – | – | – | – | – | – | – | – | – | – | – | – | – | – | – | – | number of Bifidobacteria and Lactobacillus (intestinal bacteria): significant increase; number of Clostridium perfringens, Bacteroides, Enterobacteriaceae, and Streptococcus (intestinal bacteria): decrease
COCCCOc1ccnc(C[S+]([O-])c2nc3ccccc3[nH]2)c1C (stereo not shown) [group IX, rabeprazole] | 1.2 ± 0.6 | 1.1 ± 0.3 | 3.6 ± 0.7 | 3.5 ± 1.1 | 7.8 ± 3.5 | 7.5 ± 3.4 | 0 | 20 | 50 | 0 | 20 | 40 | 10 | 100 | 80 | 100 | 20 | 87.3 ± 19.5 | 58.5 ± 20.2 | –
COc1ccc2[nH]c([S+]([O-])Cc3ncc(C)c(OC)c3C)nc2c1 (stereo not shown) [group VI, omeprazole] | 1.2 ± 0.6 | 1.1 ± 0.3 | 3.6 ± 0.8 | 3.5 ± 1.2 | 7.8 ± 3.5 | 7.5 ± 3.4 | 0 | 20 | 60 | 0 | 20 | 50 | 10 | 100 | 70 | 100 | 20 | 87.6 ± 21.2 | 58.1 ± 18.9 | –
COc1ccnc(C[S+]([O-])c2nc3ccc(OC(F)F)cc3[nH]2)c1OC (stereo not shown) [group VII, pantoprazole] | 1.0 ± 0.4 | 1.2 ± 0.3 | 3.3 ± 0.5 | 3.4 ± 1.1 | 7.5 ± 3.1 | 7.6 ± 3.4 | 0 | 20 | 50 | 0 | 10 | 40 | 10 | 100 | 80 | 100 | 20 | 87.6 ± 21.2 | 58.1 ± 18.9 | –
Cc1c(OCC(F)(F)F)ccnc1C[S+]([O-])c1nc2ccccc2[nH]1 (stereo not shown) [group VIII, lansoprazole] | 1.1 ± 0.5 | 1.1 ± 0.2 | 3.4 ± 0.7 | 3.6 ± 1.1 | 7.8 ± 3.3 | 7.7 ± 3.2 | 0 | 20 | 60 | 0 | 10 | 50 | 10 | 100 | 70 | 100 | 20 | 84.2 ± 21.5 | 57.4 ± 17.5 | –
COc1ccc2nc([S@@+]([O-])Cc3ncc(C)c(OC)c3C)[nH]c2c1 [group X, esomeprazole] | 1.1 ± 0.2 | 1.3 ± 0.1 | 3.5 ± 0.9 | 3.6 ± 1.1 | 7.7 ± 3.1 | 7.2 ± 3.1 | 0 | 20 | 60 | 0 | 10 | 50 | 10 | 100 | 80 | 100 | 20 | 87.6 ± 21.2 | 58.1 ± 18.9 | –
